In patent US20130090516A1, “Local Anesthesia By Magnet-Directed Concentration of Nanoparticle Conjugated Anesthetic” (CARNEGIE MELLON UNIVERSITY, priority 2011, published 2013):

Assays:
Sprague Dawley rats [1] = assay: Hargreaves test of thermal nociception (paw withdrawal latency); assay type: in vivo, rat; details: subcutaneous 0.8 ml of 0.1% or 0.2%, six animals each
Text: Sprague Dawley rats (300-350 grams) were used to assess the efficacy of formulations of ropivacaine generated as described above. The Hargreaves test of thermal nociception evaluates the level of sensory anesthesia of the plantar surface of the paw and was used to assess pain sensation here. Animals were placed in individual Plexiglas testing chambers in a modified Hargreaves box. Hargreaves et al., 1988, which is hereby incorporated by reference. A very low power idle intensity beam was used to initially target the plantar surface of the hind paw. Once appropriately placed, the beam was switched to a higher power active intensity (approximately 50% of maximum intensity). This causes radiant heat stimulation of the plantar hind paw and allows for a measure of the latency of the rat's paw withdrawal threshold.
Before each experiment, baseline nociception testing was performed on the animals. In all experiments, the left paws were used as controls and the right paws were utilized in the treatment condition. Rats were anesthetized using the general anesthetic isoflurane, awaked after a designated time, and the paws were tested after their returned to baseline wakefulness (approximately 5-10 minutes). Each hind paw was tested at 5 minute intervals for 40 minutes and at 10-minute intervals for 120 minutes. […]

Sprague Dawley rats [2] = assay: Acute toxicity after intravenous injection (cardiopulmonary arrest as evidence of toxicity); assay type: in vivo, rat; details: 1.2 mg intravenous
Description: Conjugated nanoparticles so prepared may be injected intravenously into a subject. […] The efficacy as a local anesthetic when concentrated with an external magnet was assessed in the following experiment.
Specifically, acute toxicity studies of unconjugated magnetic nanoparticles, assay of plasma concentration of ropivacaine, and measurement of tissue concentration of ropivacaine at the ankle were performed.
Acute toxicity studies of unconjugated magnetic nanoparticles were conducted in 10 animals. Cardiopulmonary arrest was taken as evidence of toxicity.
(§1) Each group included 3 animals. A volume of 0.3 ml of blood was drawn before injection, and at 15, 30, 60, 120, 180, 240 and 300 minutes after the injections. […] The animals in groups Bplasma and Cplasma had 14 mg of ropivacaine complexed with MNPs. In group Cplasma, the magnet assembly used in Example 2 was placed around the right ankle before injection and removed after 30 minutes.

[3] = Plasma concentration / pharmacokinetics of ropivacaine after intravenous administration; assay type: in vivo, rat
Description: For the assessment of plasma concentration of ropivacaine, the following groups were studied:
as §1
After intravenous administration, the plasma concentration of ropivacaine declined in an exponential manner as expected, in all three groups. Group Aplasma cannot be directly compared to the other two groups because the close in group Aplasma was 14 times lower. Between groups Bplasma and Cplasma, there were no differences in any parameter. Data are presented as mean (SD). Lambda-Z is defined as terminal elimination rate constant. AUC is the area under the concentration curve. Vd is the volume of distribution. Cl is clearance rate. N/A means not applicable. Listed probability values are established through t-tests between groups B and C.

[4] = rat, in vivo
Description: (§2) The experiments were done after placing the animals under isoflurane anesthesia and spontaneous ventilation. A volume of 2 milliliters of the injectate was given at 5-15° C. intravenously via a tail vein cannula over four to five minutes. A jugular catheter was inserted where necessary for blood withdrawals.
(§3) A separate set of two animals for each condition were used to assess ropivacaine concentration in the ankle.
(§4) In all groups, 0.3 ml of blood was withdrawn at baseline, at 15 minutes, and at 30 minutes for plasma ropivacaine determination. At 30 minutes, skin and subcutaneous tissue all around the right ankle were isolated for ropivacaine analysis. Analysis was performed by HPLC-MS-MS.
Again, data are presented as mean (SD)

[5] = Ropivacaine concentration in ankle tissue and plasma at 30 minutes (HPLC-MS-MS); details: Group A, ropivacaine only, 0.5 h
Description: as §2, §3, §4
Again, data are presented as mean (SD)

CCCN1CCCC[C@H]1C(=O)Nc1c(C)cccc1C [Plain ropiv, ropivacaine]
traditional nerve block (ankle block) (Sprague Dawley rats [1]): achieved
lethality (Sprague Dawley rats [2]): lethal
Cmax ([3]; Group A, 1 mg ropivacaine iv, mean): 0.8633 µg/mL
Cmax (dose normalized) ([3]; rat, in vivo, iv): 863.3 ng/mL/mg
AUC (0-inf) ([3]; rat, in vivo, iv, 1 mg): 0.875 µg·h/mL
Cl (clearance rate) ([3]; rat, in vivo, iv, 1 mg): 1462 mL/h
Half life ([3]; rat, in vivo, iv, 1 mg): 97.8 min
Tmax ([3]; rat, in vivo, iv, 1 mg): 15 min
Vd (volume of distribution) ([3]; rat, in vivo, iv, 1 mg): 3180 mL
factor by which absolute tissue drug concentration was higher than groups B and C [4]: 7-10
Ratio of tissue to plasma concentration [5]: 3.12
